The results in this text go back to the NIST ThermoML archive (doi:10.1021/je800594e).

For this data set the following is noted: for speed of sound / mass density: 101.33 kPa, Liquid; for speed of sound: Pulse-echo method; for mass density: Vibrating tube method; for surface tension liquid-gas: Drop volume.

Numbers after ± are expanded uncertainties.

`Cc1ccc(C)cc1` [1,4-dimethylbenzene]: the speed of sound by setting is: (288.15 K) 1350.7 ± 1.6 m/s; (293.15 K) 1329.6 ± 1.6 m/s; (298.15 K) 1308.4 ± 1.5 m/s; (303.15 K) 1287.4 ± 1.5 m/s; (308.15 K) 1266.4 ± 1.5 m/s. Besides, the mass density worked out at 865.2 ± 0.24 kg/m3 (288.15 K); 860.9 ± 0.24 kg/m3 (293.15 K); 856.58 ± 0.24 kg/m3 (298.15 K); 852.21 ± 0.24 kg/m3 (303.15 K); 847.83 ± 0.24 kg/m3 (308.15 K). Moreover, for the setting “298.15 K”, the surface tension liquid-gas was 27.43 ± 0.2 mN/m.
In the case of `COC(=O)OC` [dimethyl carbonate], the speed of sound is 1240.7 ± 1.5 m/s (288.15 K); 1218.1 ± 1.5 m/s (293.15 K); 1195.1 ± 1.5 m/s (298.15 K); 1173.2 ± 1.5 m/s (303.15 K); 1151.5 ± 1.5 m/s (308.15 K). For the same compound, the mass density reads like this: (288.15 K) 1076.64 ± 0.3 kg/m3; (293.15 K) 1070.01 ± 0.29 kg/m3; (298.15 K) 1063.39 ± 0.28 kg/m3; (303.15 K) 1056.78 ± 0.28 kg/m3; (308.15 K) 1050.15 ± 0.27 kg/m3. Further, where the note is “298.15 K”, the surface tension liquid-gas was determined as 28.08 ± 0.21 mN/m.
For `CCCCCCCC` [octane], the speed of sound was 1213.6 ± 1.5 m/s (288.15 K); 1192.9 ± 1.5 m/s (293.15 K); 1171.9 ± 1.5 m/s (298.15 K); 1150.9 ± 1.5 m/s (303.15 K); 1130.3 ± 1.5 m/s (308.15 K). Also, the mass density is 706.58 ± 0.25 kg/m3 (288.15 K); 702.57 ± 0.25 kg/m3 (293.15 K); 698.55 ± 0.25 kg/m3 (298.15 K); 694.48 ± 0.25 kg/m3 (303.15 K); 690.42 ± 0.25 kg/m3 (308.15 K). Moreover, where the note is “298.15 K”, the surface tension liquid-gas was found to be 20.99 ± 0.17 mN/m.

Broadly, the speed of sound is how fast a sound wave travels through the sample. As usually defined, the mass density is mass per unit of volume. Usually surface tension liquid-gas stands for the force per length acting along the surface.
